Values joined by “and” are separate entries in the source; they are usually repeats but may differ in a detail not shown here. Identical values can stand only once. A value given as a limit tells only on which side of the number the result lay.

Assay type in all cases: biochemical
One assay has as its target T1, CK1δkd (Rattus norvegicus, UniProt Q06486).
T1 construct: Recombinant CK1δ kinase domain (CK1δkd, NEB, Frankfurt am Main, Germany); purchased NEB, Frankfurt am Main, Germany
T1 sequence (Q06486 9-277 limits assumed): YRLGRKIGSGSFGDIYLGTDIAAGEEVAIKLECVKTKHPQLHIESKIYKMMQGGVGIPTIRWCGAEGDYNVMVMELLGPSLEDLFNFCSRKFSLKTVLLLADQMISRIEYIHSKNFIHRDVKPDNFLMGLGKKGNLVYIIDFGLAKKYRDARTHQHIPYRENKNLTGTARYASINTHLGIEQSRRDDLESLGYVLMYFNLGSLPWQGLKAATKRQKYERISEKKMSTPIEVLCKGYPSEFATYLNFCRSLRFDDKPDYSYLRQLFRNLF
The assay is described as follows: In vitro kinase assay, CK1δ kinase domain. To be noted: for activity against CK1δkd (in words, SAR discussion): kinase assays using a CK1 specific substrate.

In the next assay the target is T2, GST-rat CK1δ (Rattus norvegicus, UniProt Q06486).
T2 construct: made in house; host or cells: bacteria (pGEX-2T)
T2 sequence (Q06486 whole entry): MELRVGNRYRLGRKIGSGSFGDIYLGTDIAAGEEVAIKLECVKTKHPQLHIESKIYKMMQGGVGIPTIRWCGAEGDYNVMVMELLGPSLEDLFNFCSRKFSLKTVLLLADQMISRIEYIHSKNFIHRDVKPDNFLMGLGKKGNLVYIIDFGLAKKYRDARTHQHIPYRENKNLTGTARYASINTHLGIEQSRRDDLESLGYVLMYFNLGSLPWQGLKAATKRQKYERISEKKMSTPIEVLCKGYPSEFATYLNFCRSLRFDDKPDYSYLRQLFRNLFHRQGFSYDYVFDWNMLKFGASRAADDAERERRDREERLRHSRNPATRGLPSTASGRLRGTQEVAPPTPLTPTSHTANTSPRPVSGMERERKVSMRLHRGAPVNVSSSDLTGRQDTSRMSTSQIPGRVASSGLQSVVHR
The assay is described as follows: In vitro kinase assay, GST-rat CK1δ.

A further assay has as its target T3, GST-rat CK1δ^M82F (Rattus norvegicus, UniProt Q06486, M82F).
T3 construct: made in house; host or cells: bacteria (pGEX-2T)
T3 sequence (Q06486 1-415 M82F): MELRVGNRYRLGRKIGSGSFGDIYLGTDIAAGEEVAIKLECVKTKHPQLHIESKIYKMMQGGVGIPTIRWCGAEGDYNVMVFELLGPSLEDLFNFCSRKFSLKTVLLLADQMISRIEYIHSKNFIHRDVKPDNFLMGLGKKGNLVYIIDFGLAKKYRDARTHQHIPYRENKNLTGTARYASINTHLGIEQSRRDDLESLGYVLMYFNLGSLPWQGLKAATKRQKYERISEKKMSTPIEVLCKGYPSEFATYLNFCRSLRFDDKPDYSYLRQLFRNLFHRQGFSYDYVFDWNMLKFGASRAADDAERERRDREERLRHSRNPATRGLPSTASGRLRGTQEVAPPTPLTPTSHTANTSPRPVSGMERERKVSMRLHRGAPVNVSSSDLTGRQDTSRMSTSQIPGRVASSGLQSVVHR
Put plainly: In vitro kinase assay, gatekeeper mutant. To be noted: inhibitor at its determined IC50 concentration (Fig. 7). The protocol:
For the expression of wt rat CK1δ and rat CK1δ^M82F as glutathione S-transferase fusion proteins the plasmids pGEX-2T-CK1δ (FP449) (Knippschild et al. [1997]) and pGEX-2T-CK1δ^M82F (FP1153) (Peifer et al. [2009]) were used.
(§1) Expression and purification of the GST-fusion proteins GST-mouse p53^1–64 (FP267), GST-rat CK1δ (FP449), GST-rat CK1δ^M82F (FP1153), GST-mouse CK1δTV1 (FP1170), and GST-mouse CK1δTV2 (FP1171) was carried out as described elsewhere (Wolff et al. [2005]). Expression of fusion proteins FP1170 and 1171 was either performed at 37°C for 2 h, or at 15°C for 14 h. FP449 and FP1153 were always expressed at 15°C for 14 h.
(§2) In vitro kinase assays were carried out in the presence of various potential inhibitors of CK1δ at an ATP concentration of 0.01 mM and dimethyl sulfoxide (DMSO) solvent control as described previously (Knippschild et al. [1996]). Where indicated higher ATP concentrations (0.05, 0.1, 0.25 and 0.5 mM) were used. The fusion protein GST-mouse p53^1−64 (FP267) was used as substrate. Recombinant CK1δ kinase domain (CK1δkd, NEB, Frankfurt am Main, Germany), GST-rat CK1δ (FP449), GST-rat CK1δ^M82F (FP1153), GST-mouse CK1δTV1, GST-mouse CK1δTV2 and recombinant human CK1ε (Invitrogen, Karlsruhe, Germany) were used as sources of enzyme. Phosphorylated proteins were separated by SDS-PAGE and the protein bands were visualized on dried gels by autoradiography. The phosphorylated protein bands were excised and quantified by Cherenkov counting.
Previously it has been shown that methionine 82 plays an important role as gatekeeper residue in the docking mode of isoxazoles to the ATP binding pocket since mutation of methionine 82 to phenylalanine blocks binding of this class of CK1δ specific inhibitors (Peifer et al. [2009]) while still binding ATP. Therefore, we now analyzed the effects of exchanging methionine 82 to phenylalanine on the ability of compounds 4, 5 and 6 to inhibit CK1δ activity.

For the next assay, the target named is T4, GST-mouse CK1δTV2 (Mus musculus, UniProt Q9DC28).
T4 construct: made in house; host or cells: bacteria (pGEX-2T)
T4 sequence (Q9DC28 1-409 isoform Q9DC28-2): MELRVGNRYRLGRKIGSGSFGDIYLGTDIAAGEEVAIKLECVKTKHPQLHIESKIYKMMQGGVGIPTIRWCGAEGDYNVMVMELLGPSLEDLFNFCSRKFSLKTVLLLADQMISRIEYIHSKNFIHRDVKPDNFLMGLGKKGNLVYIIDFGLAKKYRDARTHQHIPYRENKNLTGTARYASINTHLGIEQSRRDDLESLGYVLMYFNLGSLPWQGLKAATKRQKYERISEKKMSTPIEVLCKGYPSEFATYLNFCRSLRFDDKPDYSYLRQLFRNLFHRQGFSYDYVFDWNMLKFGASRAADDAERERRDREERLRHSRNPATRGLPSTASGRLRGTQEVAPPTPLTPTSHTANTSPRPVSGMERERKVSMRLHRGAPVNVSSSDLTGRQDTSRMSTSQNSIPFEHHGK
Put plainly: In vitro kinase assay, GST-mouse CK1δTV2. Particulars: 0.01 mM ATP, substrate GST-mouse p53^1-64; mean ± SD; read-out: IC50 (μM) GST-CK1δ TV2.
From the text: (§3) CK1δTV1 and 2 (transcription variants 1 and 2) were PCR amplified from mouse cDNA (5′-primer TV1 and 2: 5′-[…]-3′, 3′-primer TV1: 5′-[…]-3′, 3′-primer TV2: 5′-[…]-3′) and cloned into pcDNA3.1/V5-His© TOPO® TA cloning vector (Invitrogen, Karlsruhe, Germany) before being subcloned into pGEX-2T expression vector via BamHI to generate plasmids pGEX-2T-mouse CK1δTV1 (FP1170) and pGEX-2T-mouse CK1δTV2 (FP1171).
as §1, §2

For another assay, the target named is T5, human CK1ε (Homo sapiens, UniProt P49674).
T5 construct: purchased Invitrogen, Karlsruhe, Germany
T5 sequence (P49674 whole entry): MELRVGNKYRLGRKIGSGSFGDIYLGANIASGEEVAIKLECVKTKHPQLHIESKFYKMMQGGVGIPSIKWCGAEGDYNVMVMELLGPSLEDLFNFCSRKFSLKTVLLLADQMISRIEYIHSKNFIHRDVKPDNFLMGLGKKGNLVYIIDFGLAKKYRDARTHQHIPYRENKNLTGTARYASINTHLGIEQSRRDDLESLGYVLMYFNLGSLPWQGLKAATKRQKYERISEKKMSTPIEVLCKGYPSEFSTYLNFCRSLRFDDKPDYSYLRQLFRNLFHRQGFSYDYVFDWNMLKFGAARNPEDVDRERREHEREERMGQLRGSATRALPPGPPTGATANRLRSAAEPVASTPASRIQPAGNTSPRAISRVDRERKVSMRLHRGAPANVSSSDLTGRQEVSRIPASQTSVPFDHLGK
Put plainly: In vitro kinase assay, CK1ε.

Another assay concerns the target T6, GST-mouse CK1δTV1 (Mus musculus, UniProt Q9DC28).
T6 construct: made in house; host or cells: bacteria (pGEX-2T)
Put plainly: In vitro kinase assay, GST-mouse CK1δTV1. To be noted: 0.01 mM ATP, substrate GST-mouse p53^1-64; mean ± SD; read-out: IC50 (μM) GST-CK1δ TV1.
From the text: as §3, §1, §2

Where [1] appears, read: 0.01 mM ATP, substrate GST-mouse p53^1-64, mean ± SD.
Setting [2] is: symbol, tested range 10–0.005 μM.

T6 sequence (Q9DC28 whole entry): as the sequence (Q06486 whole entry) above

The IC50 is the midpoint of a concentration-inhibition curve. As to `O=C(Nc1nc2ccccc2s1)c1csc(NC(=O)c2ccccc2OC(F)(F)F)n1` [Compound 9, 2-(2-Trifluoromethoxy-benzoylamino)-thiazole-4-carboxylic acid benzothiazol-2-ylamide], the IC50 against CK1δkd (setting [1]) was 1.12 µM and 0.73 µM; against GST-rat CK1δ (setting [1]), 1.19 ± 0.39 µM.

On to `Cn1c(NC(=O)c2csc(NC(=O)c3ccccc3OC(F)(F)F)n2)nc2ccccc21` [Compound 3, N-(1-Methyl-1H-benzo[d]imidazol-2-yl)-2-(2-(trifluoromethoxy)benz-amido)thiazole-4-carboxamide], for which the “activity against CK1δkd (in words, SAR discussion)” value (from here on “activity against CK1δkd”) on CK1δkd is “lost”. The IC50 against CK1δkd (setting [2]) and against GST-rat CK1δ (setting [2]) was above 10 µM in each case.

Turning to `CS(=O)(=O)c1ccc2[nH]c(NC(=O)c3csc(NC(=O)c4ccccc4OC(F)(F)F)n3)nc2c1` [Compound 2, N-(5-(Methylsulfonyl)-1H-benzo[d]imidazol-2-yl)-2-(2-(trifluoromethoxy)benzamido)thiazole-4-carboxamide], the IC50 on CK1δkd (setting [1]) is 1.23 ± 0.41 µM; against GST-rat CK1δ (setting [1]) it was 5.19 ± 1.14 µM. Moreover, the “activity against CK1δkd” value on CK1δkd was “diminished activity”.

Take `O=C(Nc1nc(C(=O)Nc2nc3ccc(C(F)(F)F)cc3[nH]2)cs1)c1ccncc1` [Compound 4, 2-(Isonicotinamido)-N-(6-(trifluoromethyl)-1H-benzo[d]imidazol-2-yl)thiazole-4-carboxamide]: the “kinase activity of GST-CK1δ^M82F in comparison with inhibition of GST-wt CK1δ” value at GST-rat CK1δ^M82F was “much more affected”. Moreover, the IC50 on GST-mouse CK1δTV2 was found to be 0.505 ± 0.04 µM; at GST-mouse CK1δTV1, 0.18 ± 0.03 µM; against CK1δkd (setting [1]), 0.409 ± 0.12 µM; against GST-rat CK1δ (setting [1]), 0.326 ± 0.19 µM. The “inhibition of CK1ε in initial screen” value against human CK1ε (inhibitor 10 μM, 10 μM ATP (Fig. 1b)) was “significant inhibition”. Besides, the “inhibition of CK1δkd in initial screen” value against CK1δkd (inhibitor 10 μM, 10 μM ATP (Fig. 1a)) is recorded as “significant inhibition”. Further, the mode of inhibition entry on CK1δkd (inhibitor at IC50 concentration, ATP 0.01-0.5 mM (Fig. 6)) was “ATP competitive inhibitors”. Further, the “GST-wt CK1δ activity in the presence of inhibitor” value at GST-rat CK1δ (inhibitor at its determined IC50 concentration (Fig. 7)) was “clearly decreased”.

In the case of `O=C(Nc1nc2ccccc2[nH]1)c1csc(NC(=O)c2ccccc2OC(F)(F)F)n1` [Compound 8, N-(1H-Benzo[d]imidazol-2-yl)-2-(2-(trifluoromethoxy)benzamido)thiazole-4-carboxamide], the IC50 turned out to be 1.12 ± 0.19 µM at CK1δkd (setting [1]) and 0.935 ± 0.55 µM against GST-rat CK1δ (setting [1]).

As to `O=C(Nc1nc2ccccc2o1)c1csc(NC(=O)c2ccccc2OC(F)(F)F)n1` [Compound 10, N-(Benzo[d]oxazol-2-yl)-2-(2-(trifluoromethoxy)benzamido)thiazole-4-carboxamide], the IC50 against CK1δkd (setting [1]) was found to be 0.647 ± 0.04 µM; at GST-rat CK1δ (setting [1]), 0.991 ± 0.21 µM. In addition, at CK1δkd, the “activity against CK1δkd” value is recorded as “kinase activity was even more decreased”.

Take `COC(=O)c1ccc2[nH]c(NC(=O)c3csc(NC(=O)c4ccccc4OC(F)(F)F)n3)nc2c1` [Compound 1, Methyl 2-(2-(2-(trifluoromethoxy)benzamido)-thiazole-4-carboxamido)-1H-benzo[d]imidazole-5-carboxylate]: the figures for the IC50 against human CK1ε (setting [1]), on CK1δkd (setting [1]) and at GST-rat CK1δ (setting [1]) were 0.496 ± 0.1 µM, 0.865 ± 0.14 µM and 1.97 ± 0.85 µM, respectively. Further, the “activity against CK1δkd” value on CK1δkd is on record as “diminished activity”.

For the molecule `O=C(Nc1nc2ccc(C(F)(F)F)cc2[nH]1)c1csc(NC(=O)c2ccco2)n1` [Compound 7, 2-(Furan-2-carboxamido)-N-(6-(trifluoromethyl)-1H-benzo[d]imidazol-2-yl)thiazole-4-carboxamide], the IC50 on CK1δkd (setting [1]) was determined as 0.542 ± 0.05 µM; at GST-rat CK1δ (setting [1]), 1.04 ± 0.31 µM.

Source of the values: paper PMC3448056, “2-Benzamido-N-(1H-benzo[d]imidazol-2-yl)thiazole-4-carboxamide derivatives as potent inhibitors of CK1δ/ε” (Amino Acids, 2012).
